Measured values: the supplement of paper PMC10307832

Tests used:
Assay in all cases: relative viability (nuclei count vs DMSO), 5 days (fraction); higher = more cells survive
Elesclomol + Palbociclib = compound: CN(NC(=O)CC(=O)NN(C)C(=S)c1ccccc1)C(=S)c1ccccc1 [Elesclomol] + CC(=O)c1c(C)c2cnc(Nc3ccc(N4CCNCC4)cn3)nc2n(C2CCCC2)c1=O [Palbociclib] (partner 0.5 µM)
Summary of the method: (§1)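 Lung cancer cell lines were seeded in 1536-well plates and dosed by pin tool the next day, with either a single drug or a fixed anchor-drug dose combined with five library-drug doses (not always all listed) spaced in √10 steps. Five days later, one step fixed the cells and stained their nuclei (final 0.05% Triton X-100, 1% formaldehyde, 1 ug/ml Hoechst), and nuclei were counted on 4× images. Relative viability is the nuclei count in treated wells divided by the count in vehicle wells, and each value is the median of duplicate plates.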

Elesclomol + Luminespib = compound: CN(NC(=O)CC(=O)NN(C)C(=S)c1ccccc1)C(=S)c1ccccc1 [Elesclomol] + CCNC(=O)c1noc(-c2cc(C(C)C)c(O)cc2O)c1-c1ccc(CN2CCOCC2)cc1 [Luminespib] (partner 0.01 µM)
Summary of the method: as §1

Elesclomol + Linsitinib = compound: CN(NC(=O)CC(=O)NN(C)C(=S)c1ccccc1)C(=S)c1ccccc1 [Elesclomol] + C[C@]1(O)C[C@@H](c2nc(-c3ccc4ccc(-c5ccccc5)nc4c3)c3c(N)nccn32)C1 [Linsitinib] (partner 1 µM)
Summary of the method: as §1

Elesclomol + AZD7762 = compound: CN(NC(=O)CC(=O)NN(C)C(=S)c1ccccc1)C(=S)c1ccccc1 [Elesclomol] + NC(=O)Nc1cc(-c2cccc(F)c2)sc1C(=O)N[C@H]1CCCNC1 [AZD7762] (partner 0.2 µM)
Summary of the method: as §1

Elesclomol + Olaparib = compound: CN(NC(=O)CC(=O)NN(C)C(=S)c1ccccc1)C(=S)c1ccccc1 [Elesclomol] + O=C(c1cc(Cc2n[nH]c(=O)c3ccccc23)ccc1F)N1CCN(C(=O)C2CC2)CC1 [Olaparib] (partner 8 µM)
Summary of the method: as §1

| Cell Line | relative viability (Elesclomol + Palbociclib; first compound 0.003162 µM) | relative viability (Elesclomol + Palbociclib; first compound 0.01 µM) | relative viability (Elesclomol + Palbociclib; first compound 0.03162 µM) | relative viability (Elesclomol + Palbociclib; first compound 0.1 µM) | relative viability (Elesclomol + Luminespib; first compound 0.003162 µM) | relative viability (Elesclomol + Luminespib; first compound 0.01 µM) | relative viability (Elesclomol + Luminespib; first compound 0.03162 µM) | relative viability (Elesclomol + Luminespib; first compound 0.1 µM) | relative viability (Elesclomol + Linsitinib; first compound 0.003162 µM) | relative viability (Elesclomol + Linsitinib; first compound 0.01 µM) | relative viability (Elesclomol + Linsitinib; first compound 0.03162 µM) | relative viability (Elesclomol + Linsitinib; first compound 0.1 µM) | relative viability (Elesclomol + AZD7762; first compound 0.003162 µM) | relative viability (Elesclomol + AZD7762; first compound 0.01 µM) | relative viability (Elesclomol + AZD7762; first compound 0.03162 µM) | relative viability (Elesclomol + AZD7762; first compound 0.1 µM) | relative viability (Elesclomol + Olaparib; first compound 0.003162 µM) | relative viability (Elesclomol + Olaparib; first compound 0.01 µM) | relative viability (Elesclomol + Olaparib; first compound 0.03162 µM) | relative viability (Elesclomol + Olaparib; first compound 0.1 µM) |
| --- | --- | --- | --- | --- | --- | --- | --- | --- | --- | --- | --- | --- | --- | --- | --- | --- | --- | --- | --- | --- |
| 201T | 0.349 | 0.358 | 0.354 | 0.372 | 1.01 | 1.02 | 0.978 | 0.562 | 1.08 | 1.01 | 1 | 1.01 | 0.558 | 0.628 | 0.564 | 0.598 | 0.843 | 0.843 | 0.844 | 0.705 |
| A-427 | 0.498 | 0.455 | 0.211 | 0.178 | 0.701 | 0.498 | 0.27 | 0.117 | 1.1 | 1.08 | 1.14 | 0.578 | 0.756 | 0.527 | 0.188 | 0.151 | 0.52 | 0.424 | 0.232 | 0.164 |
| ABC-1 | 0.327 | 0.265 | 0.288 | 0.258 | 0.254 | 0.206 | 0.322 | 0.223 | 0.267 | 0.207 | 0.308 | 0.212 | 0.294 | 0.252 | 0.309 | 0.236 | 0.23 | 0.428 | 0.248 | 0.342 |
| BEN | 0.46 | 0.388 | 0.39 | 0.304 | 0.333 | 0.232 | 0.158 | 0.237 | 0.763 | 0.403 | 0.322 | 0.239 | 0.654 | 0.54 | 0.38 | 0.294 | 0.828 | 0.68 | 0.656 | 0.362 |
| CAL-12T | 0.435 | 0.118 | 0.0519 | 0.0654 | 0.328 | 0.115 | 0.0856 | 0.0463 | 0.942 | 0.321 | 0.0785 | 0.0465 | 0.622 | 0.483 | 0.3 | 0.17 | 0.64 | 0.321 | 0.117 | 0.0718 |
| COR-L23 | 0.276 | 0.17 | 0.153 | 0.115 | 0.598 | 0.316 | 0.206 | 0.0873 | 0.985 | 0.511 | 0.32 | 0.244 | – | – | – | – | 0.314 | 0.254 | 0.143 | 0.0895 |
| COR-L 105 | 0.397 | 0.358 | 0.317 | 0.291 | 0.721 | 0.161 | 0.307 | 0.164 | 0.715 | 0.494 | 0.371 | 0.202 | – | – | – | – | 0.713 | 0.575 | 0.365 | 0.275 |
| ChaGo-K-1 | 0.875 | 0.882 | 0.568 | 0.154 | 0.524 | 0.541 | 0.184 | 0.128 | – | – | – | – | 0.88 | 0.715 | 0.416 | 0.139 | 0.423 | 0.396 | 0.232 | 0.125 |
| EKVX | 0.334 | 0.155 | 0.143 | 0.105 | 0.831 | 0.539 | 0.169 | 0.145 | 0.915 | 0.6 | 0.239 | 0.17 | 0.569 | 0.318 | 0.206 | 0.0929 | 0.713 | 0.364 | 0.193 | 0.106 |
